Results on 1 molecule are retold here after publication PMC12177912, “A Geranylated Natural Product Simamycin Disrupts the Allosteric Catalysis of tRNA-2-selenouridine Synthase SelU” (Biochemistry, 2025).

The assay concerns the target T1, tRNA-2-selenouridine synthase (SelU, MnmH) (Escherichia coli, UniProt Q0TKD8).
T1 construct: M1-A172 (N-terminal rhodanese domain; tags removed with TEV)
Nature of the assay: intrinsic tryptophan fluorescence quenching titration (Kd at […] °C; […] at […] °C, […] at […] °C, […] at […] °C); STD NMR. It is filed as binding.

T1 sequence (Q0TKD8 1-172): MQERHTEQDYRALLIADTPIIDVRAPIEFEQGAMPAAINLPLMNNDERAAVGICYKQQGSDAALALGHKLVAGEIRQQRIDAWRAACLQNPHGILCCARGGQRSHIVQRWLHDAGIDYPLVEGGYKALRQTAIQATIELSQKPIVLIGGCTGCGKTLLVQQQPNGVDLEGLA

`CC(C)=CCC/C(C)=C/COC[C@H]1O[C@@H](n2ccc(=O)[nH]c2=O)[C@H](O)[C@@H]1O` [simamycin]: the dissociation constant (Kd) – broadly, the equilibrium constant for the complex coming apart – stood at 29.9 µM.
